Measurements as given in patent publication US9079866B2, “Flap modulators” (JANSSEN PHARMACEUTICA NV, priority 2013, dated 2015).
Counter-ions that a name gives are not always drawn. Like-named read-outs stand apart in the source and are kept apart here.

Tests used:
[1] = system: leukotriene pathway in human whole blood (LTB4 levels); test: Human whole blood assay (A23187-stimulated LTB4); format: cell-based; details: Homo sapiens, read-out: LTB4 IC50 1:1
Procedure, shortened: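 Compounds are pre-incubated 15 min at 37° Celsius in RPMI-diluted (1:1) heparinised whole blood before a 30 min A23187 stimulus (7 μg/mL). Plasma LTB4 is read by immunoassay kit, with IC50 calculated from a 4-parameter equation.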

[2] = target: human FLAP (Homo sapiens (Human), UniProt P20292); test: FLAP binding assay (HTRF format); details: HTRF format
Sequence of human FLAP (P20292 whole entry): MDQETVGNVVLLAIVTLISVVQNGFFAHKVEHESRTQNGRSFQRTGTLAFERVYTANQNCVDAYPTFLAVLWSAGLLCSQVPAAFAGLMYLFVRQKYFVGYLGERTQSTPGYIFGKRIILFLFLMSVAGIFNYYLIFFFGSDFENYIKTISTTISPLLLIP
Procedure, shortened: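 Samples were run in duplicate on each of two assay plates, the results were averaged, and the signal was expressed as an HTRF ratio.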

[3] = human whole blood diluted 1:1, A23187-stimulated
[4] = human whole blood diluted 1:1 in RPMI, A23187-stimulated LTB4
[5] = human FLAP wild type, average of two plates, duplicates

Row | SMILES | IC50 [1, 3] | Ki ([2]; wild type FLAP) | IC50 [1, 4] | Ki [2, 5]
1 | C[C@@H]([C@@H](O)c1ccccc1)N(C)S(=O)(=O)c1ccccc1-c1ccc(-c2cnc(N)c(F)c2)c(F)c1 [Example 669, 4′-(6-Amino-5-fluoropyridin-3-yl)-3′-fluoro-N-((1S,2S)-1-hydroxy-1-phenylpropan-2-yl)-N-methyl-[1,1′-biphenyl]-2-sulfonamide] | 106 nM | 4 nM | – | –
2 | Nc1ccc(Oc2ccccc2-c2ccc(-c3cnc(N)nc3)c(F)c2)nc1 [Example 621, 5-{2′-[(5-Aminopyridin-2-yl)oxy]-3-fluorobiphenyl-4-yl}pyrimidin-2-amine] | 101 nM | 5 nM | – | –
3 | Nc1cnc(-c2ccc(-c3cccnc3OCC3CC3)cc2F)cn1 [Example 488, 5-{4-[2-(Cyclopropylmethoxy)pyridin-3-yl]-2-fluorophenyl}pyrazin-2-amine] | 1650 nM | 97 nM | – | –
4 | CC(C)(NS(=O)(=O)c1ccccc1-c1ccc(-c2cnc(N)nc2)c(F)c1)C(F)(F)F [Example 296, 4′-(2-Aminopyrimidin-5-yl)-3′-fluoro-N-(2,2,2-trifluoro-1,1-dimethylethyl)biphenyl-2-sulfonamide trifluoroacetic acid salt] | – | – | 66 nM | 5 nM
5 | Fc1cc(-c2ccccc2Oc2ncccn2)ccc1-c1ccc2[nH]cnc2c1 [Example 543, 5-[3-Fluoro-2′-(pyrimidin-2-yloxy)biphenyl-4-yl]-1H-benzimidazole] | 4160 nM | 444 nM | – | –
6 | CC(C)(C)NS(=O)(=O)c1ccccc1-c1ccc(-c2ncc(N)nc2C#N)c(F)c1 [Example 435, 4′-(5-Amino-3-cyanopyrazin-2-yl)-N-tert-butyl-3′-fluorobiphenyl-2-sulfonamide] | 166 nM | 9 nM | – | –
7 | Nc1cnc(-c2ccc(-c3ccccc3Oc3cccc(C(F)(F)F)n3)cc2F)cn1 [Example 625, 5-(3-Fluoro-2′-{[6-(trifluoromethyl)pyridin-2-yl]oxy}biphenyl-4-yl)pyrazin-2-amine] | 173 nM | 7.8 nM | – | –
8 | CC(C)(C)NS(=O)(=O)c1ccccc1-c1ccc(-c2cnc(N)c(N)n2)c(F)c1 [Example 428, N-tert-Butyl-4′-(5,6-diaminopyrazin-2-yl)-3′-fluorobiphenyl-2-sulfonamide] | 4 nM | 4 nM | – | –
9 | CN([C@H]1CCCNC1)S(=O)(=O)c1ccccc1-c1ccc(-c2cnc(N)cn2)c(F)c1 [Example 115, (S)-4′-(5-Aminopyrazin-2-yl)-3′-fluoro-N-methyl-N-piperidin-3-ylbiphenyl-2-sulfonamide] | – | – | 108 nM | 4 nM
10 | Nc1cnc(-c2ccc(-c3ccc(C(F)(F)F)cc3CN3CCC(N)CC3)cc2F)cn1 [Example 606, 5-{2′-[(4-Aminopiperidin-1-yl)methyl]-3-fluoro-4′-(trifluoromethyl)biphenyl-4-yl}pyrazin-2-amine] | 2620 nM | 46.3 nM | – | –
11 | CC(C)(C)NS(=O)(=O)c1ccccc1-c1ccc(-c2ccc(N)cn2)c(F)c1 [Example 427, 4′-(5-Aminopyridin-2-yl)-N-tert-butyl-3′-fluorobiphenyl-2-sulfonamide] | 1600 nM | 54 nM | – | –
12 | Nc1ncc(-c2ccc(-c3ccc(C(F)(F)F)cc3Oc3ncccn3)cc2F)cn1 [Example 552, 5-[3-Fluoro-2′-(pyrimidin-2-yloxy)-4′-(trifluoromethyl)biphenyl-4-yl]pyrimidin-2-amine] | 102 nM | 5 nM | – | –
13 | Nc1ccnc(Oc2ccccc2-c2ccc(-c3cnc4[nH]ccc4c3)c(F)c2)n1 [Example 524, 2-{[3′-Fluoro-4′-(1H-pyrrolo[2,3-b]pyridin-5-yl)biphenyl-2-yl]oxy}pyrimidin-4-amine] | 18 nM | 1 nM | – | –
14 | Nc1ncc(-c2ccc(-c3ccccc3Oc3ncccn3)cc2F)cn1 [Example 527, 5-[3-Fluoro-2′-(pyrimidin-2-yloxy)biphenyl-4-yl]pyrimidin-2-amine] | 183 nM | 74 nM | – | –
15 | Nc1cnc(-c2ccc(-c3ccccc3S(=O)(=O)N[C@@H]3CCc4ccccc43)cc2F)cn1 [Example 23, (R)-4′-(5-Aminopyrazin-2-yl)-N-[(1R)-2,3-dihydro-1H-inden-1-yl]-3′-fluorobiphenyl-2-sulfonamide] | – | – | 13 nM | 1 nM
16 | Nc1ncc(-c2ccc(-c3ccccc3S(=O)(=O)NCC3CC3)cc2F)cn1 [Example 283, 4′-(2-Aminopyrimidin-5-yl)-N-(cyclopropylmethyl)-3′-fluorobiphenyl-2-sulfonamide trifluoroacetic acid] | – | – | 119 nM | 9 nM
17 | Nc1ncc(-c2ccc(-c3cccnc3S(=O)(=O)C3CCC3)cc2F)cn1 [Example 805, 5-(4-(2-(Cyclobutylsulfonyl)pyridin-3-yl)-2-fluorophenyl)pyrimidin-2-amine hydrochloride] | 353 nM | 29.7 nM | – | –
18 | CC(C)(C)NS(=O)(=O)c1ccccc1-c1ccc(-c2cnc(N)c(C#N)n2)c(F)c1 [Example 434, 4′-(5-Amino-6-cyanopyrazin-2-yl)-N-tert-butyl-3′-fluorobiphenyl-2-sulfonamide] | 36 nM | 1 nM | – | –
19 | Nc1cnc(-c2ccc(-c3ccccc3S(=O)(=O)N[C@@H](c3ccccc3)C(F)(F)F)cc2F)cn1 [Example 19, (S)-4′-(5-Aminopyrazin-2-yl)-3′-fluoro-N-[(1S)-2,2,2-trifluoro-1-phenylethyl]biphenyl-2-sulfonamide] | – | – | 50 nM | 2 nM
20 | CS(=O)(=O)CCCS(=O)(=O)c1ccccc1-c1ccc(-c2cnc(N)cn2)c(F)c1 [Example 246, 5-(3-Fluoro-2′-{[3-(methylsulfonyl)propyl]sulfonyl}biphenyl-4-yl)pyrazin-2-amine hydrochloride] | – | – | 302 nM | 199 nM
21 | CC(C)(C)NC(=O)c1cc(C(F)(F)F)ccc1-c1ccc(-c2cnc(N)cn2)c(F)c1 [Example 784, 2-[4-(5-Aminopyrazin-2-yl)-3-fluoro-phenyl]-N-tert-butyl-5-(trifluoromethyl)benzamide] | 110 nM | 7.9 nM | – | –
22 | N#Cc1nc(N)cnc1-c1ccc(-c2ccc(C(F)(F)F)cc2S(=O)(=O)NCCO)cc1F [Example 712, 4′-(5-Amino-3-cyanopyrazin-2-yl)-3′-fluoro-N-(2-hydroxyethyl)-4-(trifluoromethyl)biphenyl-2-sulfonamide] | 52.3 nM | 1.9 nM | – | –
23 | CN1CCN(S(=O)(=O)c2ccccc2-c2ccc(-c3cnc(N)cn3)c(F)c2)CC1 [Example 54, 5-{3-Fluoro-2′-[(4-methylpiperazin-1-yl)sulfonyl]biphenyl-4-yl}pyrazin-2-amine] | – | – | 23 nM | 20 nM
24 | CCS(=O)(=O)N(C)c1ccccc1-c1ccc(-c2cnc3[nH]ccc3n2)c(F)c1 [Example 493, N-[3′-Fluoro-4′-(5H-pyrrolo[2,3-b]pyrazin-2-yl)biphenyl-2-yl]-N-methylethanesulfonamide] | 303 nM | 7 nM | – | –
